Reference: patent publication US7052850B2, “Isolated human EDG-4 receptor” (priority 1997, dated 2006)

System: pcDNA3-transfected 293-EBNA cells
Assay: SRE luciferase reporter in 293-EBNA cells, empty vector pcDNA3
Type: cell-based
Conditions: for SRE reporter response: Assay 3, 3 μM
Method: The protocol described in Example 11 for Assay 1 was allowed except for the following changes: • 1) 100 mm plates of 293-EBNA ith a confluency of ˜80% were used for transfection, • 2) SRE Cotransfection: 0.5 μg of 2XSREtk-p4Luc-zeo reporter DNA and 3.5 μg pcDNA3, EDG-1, EDG-3 pC3-hE3P2, different from the clone used in Assay 2 of Example 11) or the newly cloned human EDG-4 (pC3-hedg4#36); NF-κB Cotransfection: 2 μg 6XNFκBtk-p4LUc-zeo reporter DNA and 2.0 μg pcDNA3, EDG-1, EDG-3 (pC3-hE3HP2), or EDG-4 (pC3-hedg4#36). Expression plasmid and reporter plasmid DNA samples were combined and diluted in 750 μl of DMEM/F12 (serum free media) and 20 μl Plus Reagent (Lipofectamine Plus Kit, Life Technologies Cat. 109640-13), and incubated at room temperature for 15 min. • 3) 30 μl Lipofectamine Reagent (Lipofectamine Plus Kit) was diluted in 750 μl DMEM/F12. The diluted Lipofectamine was then combined with the DNA/Plus mixture and incubated at room temperature for 15 min. • 4) The 293-EBNA plates were washed once with PBS and 5 ml DMEM/F12 was added to each plate. • 5) DNA/Plus/Lipofectamine mixture was added to each plate of 293-EBNA cells. The plates were left for 3 hr at 37° C. in a 5% CO2 incubator. • 6) The transfection medium was replaced with serum-free DMEM/F12 for cells transfected with 2XSREtk-p4Luc-zeo reporter DNA and with DMEM/F12 plus 10% FBS for cells transfected with 6XNFκBtk-p4Luc-zeo reporter DNA. • Day 2. • 2) Transfected cells were harvested by trypsinization and 50,000 cells per well were plated in 96-well Blackview plates coated with poly D-lysine Becton Dickinson Labware, Cat. 40640). No cells were plated in the outside wells of the 96-well plate. • Day 3. • 1) Media for cells transfected with 6XNF-κBtk-p4Luc-zeo reporter DNA was replaced with DMEM/F12 plus 0.5% FBS. • Day 4. • 1) Media was removed and cells treated with compounds diluted in DMEM/F12 media. The following treatments were used for all transfections:
Transfection was accomplished using the Lipofectamine Plus kit (Life Technologies, Cat. 10964-013), using the manufacturer's recommended conditions. Optimal SRE induction was seen when cells were seeded so as to become 100% confluent at the time of treatment, 72–96 hr after transfection.
293-EBNA cells were grown, lipofected in monolayer cultures, and pretreated as described above for Example 11, assay #1, except that NF-κB and AP-1 reporter-transfected cells were preteated for 6 hr in medium containing 0.5% […], then treated overnight in the same medium with or without 10 μM LPA.

Molecule: lysophosphatidic acid [LPA]
- endogenous SRE reporter response vs untreated control cells (pcDNA3, 10 μM LPA): about 1.5 fold

Molecule: CCCCCCCCCCCCC/C=C/[C@@H](O)[C@@H](N)COP(=O)([O-])OCC[N+](C)(C)C [SPC, sphingosylphosphorylcholine]
- SRE reporter response (pcDNA3 control): not
- induction of the SRE reporter (Example 15A, pcDNA3 control, 3 μM SPC, 6 hr): about 2.5 fold

Molecule: CCCCCCCCCCCCC/C=C/[C@@H](O)[C@@H](N)COP(=O)(O)O [S1P, sphingosine 1-phosphate]
- SRE reporter response (pcDNA3 control): about 1.5 fold
